In the Kinase Knowledgebase extract (Sharma et al. 2016):

Molecular target: PIK3CG (human) (UniProt P48736)
Test: Inhibition of PIK3CG Kinase Activity

Chain of PIK3CG (human) (P48736 whole entry, looked up): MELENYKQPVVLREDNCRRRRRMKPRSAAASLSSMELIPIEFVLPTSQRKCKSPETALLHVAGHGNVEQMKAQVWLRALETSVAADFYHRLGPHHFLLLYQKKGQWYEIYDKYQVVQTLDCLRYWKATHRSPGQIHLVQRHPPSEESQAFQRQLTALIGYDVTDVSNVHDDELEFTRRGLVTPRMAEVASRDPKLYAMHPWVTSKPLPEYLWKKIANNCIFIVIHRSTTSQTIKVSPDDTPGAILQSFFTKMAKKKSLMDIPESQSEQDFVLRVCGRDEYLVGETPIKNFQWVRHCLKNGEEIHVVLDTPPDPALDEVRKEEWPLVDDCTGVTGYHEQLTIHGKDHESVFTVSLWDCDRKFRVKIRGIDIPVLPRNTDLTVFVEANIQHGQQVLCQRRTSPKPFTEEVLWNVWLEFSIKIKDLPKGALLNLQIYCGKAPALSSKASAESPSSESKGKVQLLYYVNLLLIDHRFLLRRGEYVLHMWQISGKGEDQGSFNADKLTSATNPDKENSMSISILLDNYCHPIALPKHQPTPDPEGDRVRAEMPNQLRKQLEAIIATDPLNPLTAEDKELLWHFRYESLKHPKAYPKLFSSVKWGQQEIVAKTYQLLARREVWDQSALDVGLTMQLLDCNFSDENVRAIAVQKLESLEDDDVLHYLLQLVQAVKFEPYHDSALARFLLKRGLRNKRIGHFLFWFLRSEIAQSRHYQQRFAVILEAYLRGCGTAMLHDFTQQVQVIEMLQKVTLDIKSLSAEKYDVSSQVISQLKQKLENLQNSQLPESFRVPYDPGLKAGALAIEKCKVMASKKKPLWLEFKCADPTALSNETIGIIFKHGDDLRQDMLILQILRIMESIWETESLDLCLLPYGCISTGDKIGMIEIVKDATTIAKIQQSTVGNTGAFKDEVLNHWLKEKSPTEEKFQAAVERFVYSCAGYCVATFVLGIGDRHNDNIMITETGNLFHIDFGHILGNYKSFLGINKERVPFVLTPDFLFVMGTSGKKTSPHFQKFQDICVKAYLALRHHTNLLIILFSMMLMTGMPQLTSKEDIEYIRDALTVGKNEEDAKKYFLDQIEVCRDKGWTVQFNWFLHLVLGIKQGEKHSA

Compound | IC50
COc1ncc(-c2nn(C)c3nc(N)ncc23)cn1 | < 2000 nM
Cn1nc(-c2cccc(C=O)c2)c2cnc(N)nc21 | < 2000 nM
COc1ccc(-c2nn(C)c3nc(N)ncc23)c(OC)c1 | < 2000 nM
Cn1nc(-c2cc(F)c(F)c(F)c2)c2cnc(N)nc21 | < 2000 nM
CC(=O)c1cccc(-c2nn(C)c3nc(N)ncc23)c1F | < 2000 nM
CCCOc1cc(F)ccc1-c1nn(C)c2nc(N)ncc12 | < 2000 nM
Cn1nc(-c2cccc(C#N)c2)c2cnc(N)nc21 | < 2000 nM
Cn1nc(-c2cc(Br)c(O)c(Br)c2)c2cnc(N)nc21 | < 2000 nM
